Values of other authors, collected in US12319654B2, “Inert nanocapsules” (THE UNIVERSITY COURT OF THE UNIVERSITY OF EDINBURGH, priority 2018, dated 2025).

Conditions: free anion

[O]=[99Tc](=[O])(=[O])[O-] [^99mTcO4^−]
Clearance time: ca. 30 mins
